Values joined by “and” are separate entries in the source; they are usually repeats but may differ in a detail not shown here. Identical values can stand only once. “Also recorded” adds a separate entry of the source.
Tests used:
[1] = Partitioning into RBCs in whole blood; assay type: in vitro ADME; conditions: 100–300 µM; normal whole human blood, 37 °C
Experimental: Toxicity concerns remain an important issue in the use of aromatic aldehydes in treating a chronic disease, such as SCD, especially as it involves modification of a large amount of in vivo present Hb. […] We evaluated key metrics such as in vitro RBC partitioning and ADME/safety profiles, in order to glean important safety insights. […] We also assessed VZHE-039 at 10 μM for its bi-directional cell permeability using Caco-2 cell monolayers[53],[54].
We incubated test compounds at expected blood concentrations (100–300 uM) with whole blood (mouse or human), after which we analyzed compound concentrations separately in plasma, whole blood and RBCs. Previously, we have established and validated reversed-phase HPLC and LC/MS methods for accurately measuring the compounds in blood. Validated reversed-phase HPLC was conducted on a Hitachi system, using a Waters C18 column, and a gradient of 0.1% Formic Acid in water (mobile phase A), and 0.1% Formic Acid in Acetonitrile (mobile phase B) at a flow rate of 1 mL/min in 12 min. UHPLC and LC/MS analyses were conducted at the Bioanalytical Core Facility at The Children’s Hospital of Philadelphia. […] 5 uL of each sample was injected at analyzed using a gradient of: (A) 5 mM ammonium acetate in deionized water (pH adjusted to 4.8 by formic acid); and (B) 5 mM ammonium acetate in (90:10) acetonitrile: water, at a flow rate of 0.5 mL/minute. […]

SS RBCs = test: pO2-dependent degree of sickling in Hemox Analyzer; assay type: cell-based, human; conditions: Hct 20%
Experimental: In a confirmatory study, a pO2 dependent degree of sickling of VZHE-039 at 1 and 2 mM doses, with Voxelotor as a control was performed using a Hemox analyzer. […] Oksenberg et al.reported similar observations with Voxelotor[28], where the compound lost its potent antisickling activity at low pO2 values.
The second study established pO2 dependent degree of sickling of VZHE-039, with Voxelotor as a control. Concurrently, blood samples, hematocrit 20%, were incubated without any drug (control) or with 1, or 2 mM VZHE-039 at 37 °C for 1 h. A second control sample was incubated with 2 mM Voxelotor. At conclusion, 100 uL aliquots of each suspension were mixed with 2.5 mL Hemox buffer (pH 7.4, supplemented with antifoam), and transferred into the sample chamber of the Hemox Analyzer. Compressed air was then flushed through the sample to ensure complete oxygenation (at 150 mmHg). Nitrogen gas was then introduced into the sample chamber, and 50 uL aliquots were obtained and fixed at defined pO2 values. At conclusion, all fixed samples were subjected to microscopic analysis for their degree of sickling, and results were plotted using Prism Graph Pad software. The experiments were conducted in three replicates on different days, and mean and standard deviation values are reported.

Hb = biological target: T1, Hb (Homo sapiens, UniProt P69905); test: Oxygen equilibrium (P50 shift) of lysates from SS cells, Hemox Analyzer; assay type: cell-based; conditions: 20% hematocrit
T1 construct: whole blood suspensions from subjects with homozygous SCD (Hct of 20%); from tissue; host or cells: whole blood / red blood cells of patients with homozygous SS sickle cell disease; lysate for HPLC and OEC
Experimental: For our previously studied compounds (e.g., INN-312, TD-7, SAJ-310, INN-298) that incorporate methoxyPy substitution to vanillin analogs, we observed a significant increase in functional and biological activity as a result of increased protein interactions[31],[33],[35],[36]. We therefore expected similar effects for VZHE-039, which we tested by following VZHE-039 activity (measured by Hb adduct formation, P50-shift and RBC sickling inhibition) using SS blood. Briefly, we incubated 0.5, 1, and 2 mM concentrations of VZHE-039 with whole blood suspensions from subjects with homozygous SCD (Hct of 20%) under hypoxic conditions (2.5% O2/97.5% N2) at 37 °C for 2 h for expected peak adduct. Aliquot blood samples were drawn into a fixative (2% glutaraldehyde solution), and sickling was assessed by microscopy[31],[33],[35],[36]. Aliquot samples were also subjected to cation-exchange HPLC analyses to assess the degree of Hb modification to the high-affinity adduct form (Hb adduct formation), as well as standard O2 equilibrium curves (OEC) to assess P50-shifts using hemox analyzer[31],[33],[35],[36]. […] The improved potency of Voxelotor has been attributed to reduced binding stoichiometry, i.e. while Voxelotor binds Hb at a 1:1 ratio, VZHE-039 binds Hb at a 2:1 ratio. […] This observation, as will be discussed later is likely due to a meaningful contribution from the novel O2-independent antisickling activity as result of the strong contact with the αF-helix.
The effect of VZHE-039 on RBC sickling, Hb modification, and Hb oxygen equilibrium was studied utilizing samples from consented individuals with homozygous SCD following previous procedure. Briefly, blood suspended in Hemox buffer and supplemented with glucose and bovine serum albumin, to a final hematocrit of 20% were incubated under air in the absence or presence of 0.5 mM, 1 mM and 2 mM VZHE-039 at 37 °C for 1 h. This was followed by incubating the suspensions under hypoxic conditions (2.5% O2/97.5% N2) at 37 °C for 2 h. Aliquot samples were obtained and fixed with 2% glutaraldehyde solution without exposure to air, and then subjected to microscopic morphological analysis of bright field images (at × 40 magnification) of single layer cells on an Olympus BX40 microscope fitted with an Infinity 2 camera (Olympus), and the coupled Image Capture software. Leftover samples were washed in phosphate-buffer saline, and hemolyzed in hypotonic lysis buffer for subsequent Hb-modification and oxygen equilibrium analyses.
For the oxygen equilibrium studies, 100 μL aliquot samples from the above clarified lysate were added to 4 mL of 0.1 M potassium phosphate buffer, pH 7.0, in cuvettes and subjected to hemoximetry analysis using a Hemox Analyzer (TCS Scientific Corp.) to determine the P50 values.

T1 sequence (P69905 2-142): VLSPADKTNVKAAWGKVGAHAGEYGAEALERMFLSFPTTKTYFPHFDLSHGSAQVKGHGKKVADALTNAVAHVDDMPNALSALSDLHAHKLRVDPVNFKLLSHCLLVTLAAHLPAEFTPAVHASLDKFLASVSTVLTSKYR
T1 sequence (P68871 with tags, fused parts or gaps E7V partner): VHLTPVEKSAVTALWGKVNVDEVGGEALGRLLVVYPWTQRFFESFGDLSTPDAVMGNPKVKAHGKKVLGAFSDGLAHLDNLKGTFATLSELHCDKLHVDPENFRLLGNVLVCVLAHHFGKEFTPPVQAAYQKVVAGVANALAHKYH

With `O=Cc1c(O)cccc1OCc1cccc(CO)n1` [VZHE-039, 2-((6-(Hydroxymethyl)pyridin-2-yl)methoxy)-6-hydroxybenzaldehyde] the “Partitioned into the RBC compartment” value [1] was “approximately 85%”, the “pO2-dependent sickling inhibition (in words)” value (SS RBCs; 1 mM) was “delay in initiation of sickling, as well as reduction in the total number of sickled cells; also recorded: significant delay in initiation of sickling” and the “pO2-dependent sickling inhibition (in words)” value (SS RBCs; 2 mM) was “complete inhibition of sickling at the lowest recorded pO2; also recorded: complete sickling inhibition at all pO2”. For the same compound, the “P50 Shift (ΔP50)” value (Hb; 0.5 mM) was 22% and 22.3 ± 8.7%, the “P50 Shift (ΔP50)” value (Hb; 1 mM) was 47% and 46.6 ± 5.4% and the “P50 Shift (ΔP50)” value (Hb; 2 mM) was 76% and 75.6 ± 2.5%.
